# Columns and labels:
# [1] = biological target: T1, α1(Q242L/N408A/Y411F)β3 GABAAR (UniProt P28472+P62813, N434A/Q268L/Y437F); experiment: Two-electrode voltage clamp in Xenopus laevis oocytes, intersubunit + α1 intrasubunit mutant; format: cell-based; design: expressed in transfected cells; host or cells: Xenopus laevis oocytes injected with cRNA; conditions: 3 μM 3α5αP, 1 mM GABA + 40 μM pentobarbital
# Experimental: The wild-type and mutant α1β3 GABAAR were expressed in oocytes from the African clawed frog (Xenopus laevis). Frogs were purchased from Xenopus 1 (Dexter, MI), and housed and cared for in a Washington University Animal Care Facility under the supervision of the Washington University Division of Comparative Medicine. Harvesting of oocytes was conducted under the Guide for the Care and Use of Laboratory Animals as adopted and promulgated by the National Institutes of Health. The animal protocol (No. 20180191) was approved by the Animal Studies Committee of Washington University in St. Louis. The oocytes were injected with a total of 12 ng cRNA. The ratio of cRNAs was 5:1 ratio (α1:β3) to minimize the expression of β3 homomeric receptors. Following injection, the oocytes were incubated in ND96 (96 mM NaCl, 2 mM KCl, 1.8 mM CaCl2, 1 mM MgCl2, 5 mM HEPES; pH 7.4) with supplements (2.5 mM Na pyruvate, 100 U/ml penicillin, 100 μg/ml streptomycin and 50 μg/ml gentamycin) at 16°C for 2 days prior to conducting electrophysiological recordings. The electrophysiological recordings were conducted at room temperature using standard two-electrode voltage clamp. The oocytes were clamped at −60 mV. The chamber (RC-1Z, Warner Instruments, Hamden, CT) was perfused with ND96 at 5–8 ml/min. […] Current traces were analyzed with Clampfit (Molecular Devices). […]
# [2] = biological target: T1, α1(Q242L/N408A/Y411F)β3 GABAAR; experiment: [3H]muscimol binding to HEK cell membranes, intersubunit + α1 intrasubunit site mutant; design: expressed in transfected cells; host or cells: HEK293S GnTI- (ATCC CRL-3022), transient; species or system rat α1, human β3; conditions: 3 nM [3H]muscimol, 100% means no effect
# Experimental: The human α1 and β3 GABAAR subunits were subcloned into pcDNA3 for molecular manipulations and cRNA synthesis. Using QuikChange Site-Directed Mutagenesis Kit (Agilent Technologies, Santa Clara, CA), a FLAG tag was first added to the α1 subunit then an 8xHis tag was added to generate the following His-FLAG tag tandem ([…]), inserted between the fourth and fifth residues of the mature peptide. The α1 and β3 subunits were then transferred into the pcDNA4/TO and pcDNA5/TO vectors (Thermo Fisher Scientific), respectively, for tetracycline inducible expression. Transient expression was done using the GABAAR subunits rat α1FLAG ([Ueno et al., 1996]) and human β3 obtained from Geoffrey White (Neurogen, Branford, CT), each were subcloned into pcDNA3 for molecular manipulations and cRNA synthesis. […]
# [^3H]muscimol-binding assays were performed using a previously described method ([Chen et al., 2019]). […] Time courses of neurosteroid [^3H]muscimol binding enhancement were examined by adding 10 µM of neurosteroids (3α5αP, 3β5αP) to membranes that had been fully equilibrated with 3 nM [^3H]muscimol for 1 hr on ice; binding was then measured as a function of time at 1, 3, 10, 30, 60 min. […] Radioactivity bound to the filters was measured by liquid scintillation spectrometry using Bio-Safe II (Research Products International, Mount Prospect, IL).
# T1 sequence (P62813 28-455 Q268L/N434A/Y437F): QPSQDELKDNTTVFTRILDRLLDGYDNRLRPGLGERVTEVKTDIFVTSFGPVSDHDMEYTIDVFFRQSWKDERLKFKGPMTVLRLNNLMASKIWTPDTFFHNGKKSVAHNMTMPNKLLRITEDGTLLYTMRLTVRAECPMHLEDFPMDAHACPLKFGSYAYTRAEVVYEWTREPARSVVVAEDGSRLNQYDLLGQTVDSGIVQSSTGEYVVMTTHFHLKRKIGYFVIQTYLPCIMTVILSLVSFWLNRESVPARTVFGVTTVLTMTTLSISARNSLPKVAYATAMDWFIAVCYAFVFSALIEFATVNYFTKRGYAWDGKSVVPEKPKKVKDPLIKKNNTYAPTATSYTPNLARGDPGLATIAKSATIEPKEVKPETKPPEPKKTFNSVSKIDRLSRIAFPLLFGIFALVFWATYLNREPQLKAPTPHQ
# T1 sequence (P28472 26-473): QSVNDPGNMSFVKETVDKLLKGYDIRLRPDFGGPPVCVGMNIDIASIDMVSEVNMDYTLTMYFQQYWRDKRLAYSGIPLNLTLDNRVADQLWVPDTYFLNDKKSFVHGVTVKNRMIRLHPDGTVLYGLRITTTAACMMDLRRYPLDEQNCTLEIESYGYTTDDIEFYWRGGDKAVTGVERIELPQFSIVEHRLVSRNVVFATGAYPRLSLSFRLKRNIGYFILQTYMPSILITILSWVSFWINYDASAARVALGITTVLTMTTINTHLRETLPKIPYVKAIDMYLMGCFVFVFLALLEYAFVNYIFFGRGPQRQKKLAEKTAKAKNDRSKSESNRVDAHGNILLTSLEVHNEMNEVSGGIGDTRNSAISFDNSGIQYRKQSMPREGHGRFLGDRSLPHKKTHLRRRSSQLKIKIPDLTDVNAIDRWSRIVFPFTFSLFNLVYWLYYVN
compound,measurement,setting,value
"CC(=O)[C@H]1CC[C@H]2[C@@H]3CC[C@H]4C[C@H](O)CC[C@]4(C)[C@H]3CC[C@]12C [3α5αP, allopregnanolone]",Effect on steady-state current,[1],significantly inhibited
same,Emax (% of control) of [3H]muscimol binding,[2],**105.9 ± 7.3 % of control

# Reference: paper PMC7532004, “Site-specific effects of neurosteroids on GABAA receptor activation and desensitization” (eLife, 2020)
